Key:
[1] = molecular target: T1, METTL3-14 complex (Homo sapiens, UniProt Q86U44); assay: METTL3-14 enzyme-based bioluminescence assay (screening assay); assay type: biochemical; conditions: IC50 not affected by SAM 50-1600 nM or RNA 25-800 nM
T1 construct: genes encoding the full-length and MTase domain of human METTL3; METTL3-14 FL: full length of METTL3-14; 10x His (thrombin-cleavable) (cleaved yes); made in house; host or cells: Trichoplusia ni (Hi5) cells co-infected with two baculoviruses (virus made in Sf9)
T1 sequence (Q86U44 whole entry, the tested form may be a part): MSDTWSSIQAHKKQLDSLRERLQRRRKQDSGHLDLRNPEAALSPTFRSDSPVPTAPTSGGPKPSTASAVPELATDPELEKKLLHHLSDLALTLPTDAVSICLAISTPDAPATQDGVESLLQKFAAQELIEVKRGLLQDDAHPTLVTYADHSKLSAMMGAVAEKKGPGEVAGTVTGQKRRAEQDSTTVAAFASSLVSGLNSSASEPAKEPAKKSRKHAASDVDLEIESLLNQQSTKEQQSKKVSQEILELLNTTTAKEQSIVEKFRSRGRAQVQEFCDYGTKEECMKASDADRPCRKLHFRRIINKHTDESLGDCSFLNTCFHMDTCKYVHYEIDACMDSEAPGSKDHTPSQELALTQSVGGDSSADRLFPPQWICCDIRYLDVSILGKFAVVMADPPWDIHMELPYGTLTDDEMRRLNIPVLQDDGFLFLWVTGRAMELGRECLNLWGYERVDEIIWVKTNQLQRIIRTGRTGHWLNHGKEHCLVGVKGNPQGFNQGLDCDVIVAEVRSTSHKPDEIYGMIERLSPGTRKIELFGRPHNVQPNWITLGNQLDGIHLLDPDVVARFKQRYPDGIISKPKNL
T1 sequence (Q9HCE5 whole entry partner, the tested form may be a part): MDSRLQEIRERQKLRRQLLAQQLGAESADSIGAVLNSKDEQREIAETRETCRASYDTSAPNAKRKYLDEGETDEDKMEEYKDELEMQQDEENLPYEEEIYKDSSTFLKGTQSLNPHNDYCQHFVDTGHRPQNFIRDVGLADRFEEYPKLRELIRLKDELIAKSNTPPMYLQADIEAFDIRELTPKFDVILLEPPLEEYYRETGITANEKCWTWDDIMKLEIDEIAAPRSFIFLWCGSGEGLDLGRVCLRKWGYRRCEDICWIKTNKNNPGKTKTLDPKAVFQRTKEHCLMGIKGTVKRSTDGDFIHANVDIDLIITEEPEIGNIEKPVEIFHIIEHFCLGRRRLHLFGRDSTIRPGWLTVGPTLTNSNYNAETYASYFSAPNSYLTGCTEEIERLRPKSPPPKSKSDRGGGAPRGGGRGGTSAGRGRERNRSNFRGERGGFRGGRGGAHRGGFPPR
Experimental: (§1) An enzymatic bioluminescence assay was established to identify the METTL3-14 inhibitor through screening. […] METTL3-14 activity was assessed by measuring the luminescence using a Victor multilabel reader (PerkinElmer, Waltham, MA, USA). The IC50 values were calculated by a nonlinear regression analysis using OriginPro 9.1 software (OriginLab).
(§2) To confirm the mechanism of action of eltrombopag in the METTL3-14 complex, 30 nM METTL3-14 and serially diluted eltrombopag were reacted with various concentrations of SAM or RNA substrate and saturating concentrations of the other substrate (3 μM SAM or 2 μM RNA substrate) for 20 min. To evaluate the inhibitory activity in a single form of METTL3 and METTL14, 1 μM of METTL3 and 300 nM of METTL14 were incubated with 1 μM of SAM, 500 nM of RNA substrates, and serially diluted eltrombopag for 5 h. To measure the inhibitory activity in the truncated form of the METTL3-14 complex, 1 μM of the truncated METTL3-14 complex was reacted with 1 μM of SAM, 500 nM of RNA substrates, and serially diluted eltrombopag for 5 h.

[2] = design: method as in PMID 34225039; conditions: cited from earlier work
[3] = molecular target: T2, G9a (Homo sapiens, UniProt Q96KQ7); assay: Methyltransferase selectivity panel (MT HotSpot radioisotope assay), G9a; assay type: biochemical; conditions: 10 μM eltrombopag
T2 construct: purchased Reaction Biology (Malvern, PA, USA), contract assay
T2 sequence (Q96KQ7 1-1210): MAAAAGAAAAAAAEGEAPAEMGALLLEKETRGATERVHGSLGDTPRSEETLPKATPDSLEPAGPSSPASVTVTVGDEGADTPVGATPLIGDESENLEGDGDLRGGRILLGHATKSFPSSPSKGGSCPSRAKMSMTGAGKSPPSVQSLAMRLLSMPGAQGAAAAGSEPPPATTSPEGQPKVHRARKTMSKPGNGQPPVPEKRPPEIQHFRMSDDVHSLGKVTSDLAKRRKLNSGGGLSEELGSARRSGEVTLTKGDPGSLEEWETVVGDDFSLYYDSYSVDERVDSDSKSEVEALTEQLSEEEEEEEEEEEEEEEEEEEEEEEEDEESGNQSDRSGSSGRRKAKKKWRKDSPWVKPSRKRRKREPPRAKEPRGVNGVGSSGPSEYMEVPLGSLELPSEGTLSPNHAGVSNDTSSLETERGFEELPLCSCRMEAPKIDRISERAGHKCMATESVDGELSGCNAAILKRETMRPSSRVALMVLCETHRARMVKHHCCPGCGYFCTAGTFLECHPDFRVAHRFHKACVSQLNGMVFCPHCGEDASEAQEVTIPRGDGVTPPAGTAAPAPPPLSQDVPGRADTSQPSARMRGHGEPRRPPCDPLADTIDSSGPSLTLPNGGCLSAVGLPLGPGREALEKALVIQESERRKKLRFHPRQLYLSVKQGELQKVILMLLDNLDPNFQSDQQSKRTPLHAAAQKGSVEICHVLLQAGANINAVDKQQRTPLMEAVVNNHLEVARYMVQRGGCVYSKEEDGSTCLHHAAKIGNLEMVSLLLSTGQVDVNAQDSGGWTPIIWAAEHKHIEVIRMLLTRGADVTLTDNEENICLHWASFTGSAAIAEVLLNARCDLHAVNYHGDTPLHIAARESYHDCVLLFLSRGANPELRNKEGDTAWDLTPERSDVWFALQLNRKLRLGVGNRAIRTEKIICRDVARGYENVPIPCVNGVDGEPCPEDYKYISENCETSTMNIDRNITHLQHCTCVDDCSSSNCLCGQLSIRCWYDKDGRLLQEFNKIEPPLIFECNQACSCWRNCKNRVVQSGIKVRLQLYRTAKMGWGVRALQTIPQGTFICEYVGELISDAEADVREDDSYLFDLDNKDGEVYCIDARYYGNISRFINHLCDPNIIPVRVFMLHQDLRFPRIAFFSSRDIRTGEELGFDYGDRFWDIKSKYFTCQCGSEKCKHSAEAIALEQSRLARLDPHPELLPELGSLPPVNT
Experimental: The selectivity profile of eltrombopag was investigated by testing the level of inhibition in a methyltransferase panel. The inhibition of 7 […] methyltransferase was tested at Reaction Biology (Malvern, PA, USA) using a gold standard radioisotope-based MT assay (MT HotSpot^TM) with 10 μM of eltrombopag in duplicate.

[4] = molecular target: T3, truncated METTL3-14 complex (Homo sapiens, UniProt Q86U44); assay: Bioluminescence enzyme assay, truncated form of METTL3-14 (methyltransferase domain); assay type: biochemical
T3 construct: MTase domain of human METTL3 (residues 369 to 580); METTL14 (residues 106 to 396); 10x His (thrombin-cleavable) (cleaved yes); made in house; host or cells: Trichoplusia ni (Hi5) cells co-infected with two baculoviruses
T3 sequence (Q86U44 369-580): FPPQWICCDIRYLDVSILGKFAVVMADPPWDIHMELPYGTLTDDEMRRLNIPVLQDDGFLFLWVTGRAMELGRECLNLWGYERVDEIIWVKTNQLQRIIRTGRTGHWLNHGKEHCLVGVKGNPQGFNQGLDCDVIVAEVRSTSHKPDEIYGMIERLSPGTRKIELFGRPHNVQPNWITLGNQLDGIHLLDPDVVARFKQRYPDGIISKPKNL
T3 sequence (Q9HCE5 106-396 partner limits assumed): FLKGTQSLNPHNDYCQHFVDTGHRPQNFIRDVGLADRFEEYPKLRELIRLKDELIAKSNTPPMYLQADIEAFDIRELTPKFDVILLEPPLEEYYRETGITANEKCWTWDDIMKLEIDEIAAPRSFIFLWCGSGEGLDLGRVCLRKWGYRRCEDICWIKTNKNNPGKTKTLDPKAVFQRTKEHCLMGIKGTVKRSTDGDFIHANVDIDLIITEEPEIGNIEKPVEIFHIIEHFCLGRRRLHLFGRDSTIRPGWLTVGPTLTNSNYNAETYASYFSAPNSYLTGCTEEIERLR
Experimental: as §1, §2

[5] = molecular target: T1, METTL3-14 complex; assay: Surface plasmon resonance binding to METTL3-14; conditions: SPR
Experimental: The interaction between eltrombopag and the METTL3-14 complex was explored using a Reichert […] instrument optical biosensor (Reichert Technologies, Depew, NY, USA) equipped with a carboxymethyl dextran sensor chip (part no. 13206066, Reichert Technologies). To activate the sensor chip, free carboxyl groups on the surface were modified by injecting a mixture of 0.1 M of 1-ethyl-3-(3-dimethylaminopropyl) carbodiimide hydrochloride and 0.05 M of N-hydroxysuccinimide at a flow rate of 10 μL/min to generate a reactive succinimide ester surface. […] The binding experiments were performed using a flow rate of 30 μL/min with an association time of 5 min and a dissociation time of 7 min. The regeneration of the surfaces was performed, when necessary, by 10 mM of NaOH. The Langmuir model of the Scrubber2 software was used to determine the equilibrium dissociation constant and kinetic dissociation and association constants.

**Q.** For `CC1=NN(c2ccc(C)c(C)c2)C(=O)/C1=N\Nc1cccc(-c2cccc(C(=O)O)c2)c1O` [Eltrombopag], which “mode of enzyme inhibition” value [1] is on record?
**A.** noncompetitive inhibitor

**Q.** And the water solubility [2]?
**A.** low

**Q.** And the remaining activity at 10 µM [3]?
**A.** 99 ± 3.3%

**Q.** And the “fold change of IC50, truncated versus full length METTL3-14” value [4]?
**A.** 3.5 fold

**Q.** What about the IC50 ([4]; 1 μM truncated complex, 1 μM SAM, 500 nM RNA, 5 h) of the same compound?
**A.** 12 µM

**Q.** What about the “Ka (kinetic association constant)” value [5] of the same compound?
**A.** 492(4)

**Q.** And the Kd ([5]; Langmuir model, read-out: KD (equilibrium dissociation constant))?
**A.** 13.2 µM

Reference: publication PMC9032718, “Eltrombopag as an Allosteric Inhibitor of the METTL3-14 Complex Affecting the m^6A Methylation of RNA in Acute Myeloid Leukemia Cells” (Pharmaceuticals, 2022)
